Converted amounts (≈) assume the structure as drawn. The source made the active and inactive calls. The rule behind the calls is not given here.
Assays:
[1] = test system: Enterococcus faecium; experiment: Antibacterial activity against vancomycin B-resistant Enterococcus faecium SR23598; type: functional
[2] = test system: Enterococcus faecium; experiment: Antibacterial activity against vancomycin A-resistant Enterococcus faecium SR7940; type: functional
[3] = test system: Staphylococcus aureus; experiment: Antibacterial activity against vancomycin A-resistant Staphylococcus aureus VRS2; type: functional
[4] = test system: Staphylococcus aureus subsp. aureus RN4220; experiment: Binding affinity to penicillin-binding protein-2 in Staphylococcus aureus RN4220 cell membrane at 50 uM incubated for 20 mins measured after UV irradiation by SDS-PAGE based immunostaining
[5] = test system: Enterococcus faecium; experiment: Antibacterial activity against vancomycin-susceptible Enterococcus faecium SR16972; type: functional
[6] = test system: Staphylococcus aureus subsp. aureus RN4220; experiment: Binding affinity to Staphylococcus aureus RN4220 recombinant C-terminal His6-tagged PBP2 expressed in Escherichia coli cells at 2 uM incubated for 2 hrs measured after UV irradiation by LC-MALDI-MS/MS analysis
[7] = test system: Staphylococcus aureus subsp. aureus RN4220; experiment: Binding affinity to penicillin-binding protein-2 transpeptidase domain in Staphylococcus aureus RN4220 cell membrane at 1 uM incubated for 1 hr measured after UV irradiation by pull-down assay
[8] = test system: Staphylococcus aureus; experiment: Antibacterial activity against vancomycin-susceptible Staphylococcus aureus RN4220; type: functional
[9] = test system: Staphylococcus aureus subsp. aureus RN4220; experiment: Displacement of photoaffinity probe 1 from penicillin-binding protein-2 in Staphylococcus aureus RN4220 cell membrane incubated for 5 mins prior to photoaffinity probe 1 challenge for 5 mins measured after UV irradiation by SDS-PAGE based western blot analysis

SMILES | MIC [1] | MIC [2] | MIC [3] | Activity [4] | MIC [5] | Activity [6] | Activity [7] | MIC [8] | inhibition [9]
CN[C@H](CC(C)C)C(=O)N[C@H]1C(=O)N[C@@H](CC(N)=O)C(=O)N[C@H]2C(=O)N[C@H]3C(=O)N[C@H](C(=O)N[C@H](C(=O)NCCCOCCOCCOCCCNC(=O)CCCC[C@@H]4SC[C@@H]5NC(=O)N[C@@H]54)c4cc(O)cc(O)c4-c4cc3ccc4O)[C@H](O)c3ccc(c(Cl)c3)Oc3cc2cc(c3O[C@@H]2O[C@H](CO)[C@@H](O)[C@H](O)[C@H]2O[C@H]2C[C@](C)(NCc3ccc(NC(=O)c4ccc(C5(C(F)(F)F)N=N5)cc4)nc3)[C@H](O)[C@H](C)O2)Oc2ccc(cc2Cl)[C@H]1O | 0.5 µg/mL (≈ 0.228 µM) | 2 µg/mL (≈ 0.911 µM) | 2 µg/mL (≈ 0.911 µM) | Active | 0.5 µg/mL (≈ 0.228 µM) | Active | Active | 1 µg/mL (≈ 0.455 µM) | –
CN[C@H](CC(C)C)C(=O)N[C@H]1C(=O)N[C@@H](CC(N)=O)C(=O)N[C@H]2C(=O)N[C@H]3C(=O)N[C@H](C(=O)N[C@H](C(=O)O)c4cc(O)cc(O)c4-c4cc3ccc4O)[C@H](O)c3ccc(c(Cl)c3)Oc3cc2cc(c3O[C@@H]2O[C@H](CO)[C@@H](O)[C@H](O)[C@H]2O[C@H]2C[C@](C)(N)[C@H](O)[C@H](C)O2)Oc2ccc(cc2Cl)[C@H]1O [VANCOMYCIN] | > 64 µg/mL | > 64 µg/mL | > 64 µg/mL | – | – | – | – | – | –
CN[C@H](CC(C)C)C(=O)N[C@H]1C(=O)N[C@@H](CC(N)=O)C(=O)N[C@H]2C(=O)N[C@H]3C(=O)N[C@H](C(=O)N[C@H](C(=O)O)c4cc(O)cc(O)c4-c4cc3ccc4O)[C@H](O)c3ccc(c(Cl)c3)Oc3cc2cc(c3O[C@@H]2O[C@H](CO)[C@@H](O)[C@H](O)[C@H]2O[C@H]2C[C@](C)(NCc3cccc(NC(=O)c4ccc(C)c(OCc5ccccc5)c4[N+](=O)[O-])c3)[C@H](O)[C@H](C)O2)Oc2ccc(cc2Cl)[C@H]1O | 0.25 µg/mL (≈ 0.137 µM) | 1 µg/mL (≈ 0.548 µM) | 0.5 µg/mL (≈ 0.274 µM) | – | 0.25 µg/mL (≈ 0.137 µM) | – | – | 0.125 µg/mL (≈ 0.0685 µM) | Dose-dependent effect

— ChEMBL document CHEMBL3217742, “Mapping of a lipoglycopeptide antibiotic binding site on Staphylococcus aureus penicillin-binding protein 2 using a vancomycin photoaffinity analogue” (2012)
